{"source": "patent US20250360210A1", "about": "“IMMUNOEFFECTOR CELLS DERIVED FROM INDUCED PLURIPOTENT STEM CELLS GENETICALLY ENGINEERED WITH MEMBRANE BOUND IL12 AND USES THEREOF” (Century Therapeutics, Inc., priority 2022, published 2025)", "target": "T1, ADAM17 (Homo sapiens, UniProt P78536)", "T1 construct": "endogenous in cells; host or cells: iPSCs engineered with p1514 (ADAM17-cleavable membrane-tethered IL12 transgene at the AAVS1 locus)", "T1 sequence (P78536 215-824)": "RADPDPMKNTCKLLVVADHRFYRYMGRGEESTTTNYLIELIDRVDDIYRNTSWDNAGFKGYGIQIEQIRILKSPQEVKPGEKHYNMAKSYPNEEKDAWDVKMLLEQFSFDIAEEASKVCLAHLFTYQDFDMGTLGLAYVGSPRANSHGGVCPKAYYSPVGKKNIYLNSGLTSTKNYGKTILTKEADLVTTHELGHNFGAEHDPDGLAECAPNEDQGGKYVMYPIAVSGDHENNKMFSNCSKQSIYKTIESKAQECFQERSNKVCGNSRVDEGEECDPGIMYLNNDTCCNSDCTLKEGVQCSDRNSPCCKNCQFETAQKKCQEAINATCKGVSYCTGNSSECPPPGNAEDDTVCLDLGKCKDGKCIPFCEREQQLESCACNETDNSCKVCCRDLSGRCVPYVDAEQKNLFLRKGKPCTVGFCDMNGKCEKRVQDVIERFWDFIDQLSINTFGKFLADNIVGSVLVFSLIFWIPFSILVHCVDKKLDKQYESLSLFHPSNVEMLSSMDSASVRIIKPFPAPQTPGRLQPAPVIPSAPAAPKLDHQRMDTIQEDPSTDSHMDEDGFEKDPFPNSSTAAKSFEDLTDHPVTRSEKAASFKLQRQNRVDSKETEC", "experiment": "Flow cytometry for IL12 on the surface of p1514-engineered iPSCs after incubation with TAPI-1", "type": "cell-based", "details": "concentrations lower than 50 uM", "protocol": "To confirm expression in cells engineered with the ADAM17 cleavable membrane tethered IL12 (p1514; FIG. 1B), the iPSCs were incubated with different concentrations of the ADAM17 inhibitor TAPI-1 and then analyzed by flow cytometry for IL12 detection on the surface of the engineered iPSCs.\nLower concentrations had no effect on cell health or tmIL12 detection)", "data": [{"smiles": "CC(C)C[C@H](CC(=O)NO)C(=O)N[C@@H](Cc1ccc2ccccc2c1)C(=O)N[C@@H](C)C(=O)NCCN", "note": "[TAPI-1]", "values": [{"measurement": "tmIL12 detection on surface of engineered iPSCs", "value": "no effect"}, {"measurement": "cell health", "setting": "engineered iPSCs", "value": "no effect"}]}]}
